The source of these data is US10273211B2, “Metabolites of N-{4-([6,7-bis(methyloxy)quinolin-4-yl]oxy}phenyl)-N′-(4-fluorophenyl)cyclopropane-1,1-dicarboxamide” (Exelixis, Inc., priority 2013, dated 2019).

Series [1] can be described thus: Metabolite profiling of human plasma after [14C] cabozantinib (mass balance study). The series is classed as in vivo. As to conditions: single 175 mg oral dose of cabozantinib (L-malate salt) with [14C] cabozantinib, HPLC Method 1. Here is the method: (§1) The objective of this study was to profile and identify metabolites of cabozantinib in human plasma, urine, and feces.
(§2) The plasma, urine, and fecal samples were collected from the 8 subjects for the metabolite profiling.
(§3) All samples were shipped to QPS LLC (Newark, Del.) and stored at −70° C. HPLC/tandem MS coupled with a radio flow-through detector (RFD) was used for metabolite profiling and identification for samples with sufficient levels of radioactivity.
(§4) HPLC fraction collection followed by counting with TopCount NXT™ was used for radioquantitation of plasma samples with sufficient levels of radioactivity. […] HPLC Method 1 was used for the analysis of pooled urine and fecal samples and individual plasma samples from different time points. […] HPLC Method 3 was used for pooled plasma samples.
For the investigation of co-eluting metabolites, nonradiolabeled plasma samples of six subjects were pooled, processed, and analyzed for pre-dose, 1-7, 8-96, and 120-336 hours post-dose. […] [^14C]
Radiolabeled and non-radiolabeled plasma samples were extracted employing the same method, using 1.0-2 mL plasma samples, depending on the volume available and radioactivity level of the samples. The supernatants were evaporated to dryness under a stream of nitrogen in an ambient water bath, and the residues were reconstituted in 0.35-0.5 mL of MeOH:ACN:water (10:20:70, v/v/v). The reconstituted samples were centrifuged at 15,000 rpm for 10 minutes. Aliquots of the supernatants were injected onto the HPLC system for analysis.
(§5) The system for metabolite profiling and identification (HPLC/MS/RFD) consisted of a HTC PAL autosampler, a Surveyor HPLC pump, a LTQ linear ion trap mass spectrometer, and a β-RAM Model 3 RFD. The data obtained by mass spectrometry and RFD were processed by Xcalibur and Laura Lite 3 software, respectively. The HPLC eluent was split between the RFD and mass spectrometer with a ratio of 3 to 1. The following are the summary of the conditions for HPLC, mass spectrometer, and RFD.
Mass spectra (MS, MS/MS, and MS/MS/MS) of cabozantinib and its metabolite standards, provided by the Exelixis, Inc., were acquired on an ion trap mass spectrometer. Major fragment patterns were proposed. Identification of these metabolites was confirmed by matching mass spectra (MS and MS/MS) and retention times with authentic reference standards. For other unknown metabolites, molecular ions were searched on LC/MS chromatograms operating in full scan positive as well as negative ionization modes at the same retention times as those found on LC-radio chromatogram. […]
For plasma samples, percent of total radioactivity in the sample for each peak at each time point was calculated and converted to ng/mL.

The nature of series [2]: Metabolite profiling of human urine after [14C] cabozantinib (mass balance study). It counts as in vivo. The settings on record: single 175 mg oral dose; for presence in pooled urine sample: human urine. Here is the method: as §1, §2, §3, §4
The radioactivity in pooled urine and reconstituted solution was counted using LSC, and the reconstitution recovery calculated. […] Each pooled urine sample was lyophilized, the residue was reconstituted in water:ACN:FA (80:20:0.1, v/v/v), and the reconstituted sample was centrifuged at 15,000 rpm for 10 min before analysis.
as §5
(§6) Mass spectra (MS, MS/MS, and MS/MS/MS) of cabozantinib and its metabolite standards, provided by the Exelixis, Inc., were acquired on an ion trap mass spectrometer. Major fragment patterns were proposed. Identification of these metabolites was confirmed by matching mass spectra (MS and MS/MS) and retention times with authentic reference standards. For other unknown metabolites, molecular ions were searched on LC/MS chromatograms operating in full scan positive as well as negative ionization modes at the same retention times as those found on LC-radio chromatogram. Product ion mass spectra and high resolution mass spectra were then acquired for the corresponding molecular ions. Putative metabolite structures were proposed based on the analysis of their mass fragment patterns.
For the pooled urine samples, percent of total radioactivity in the pooled sample for each peak was calculated as the % of total non-parent in the pooled samples: % of total non-parent in the pooled samples=(total radioactivity of the peak/total radioactivity of the non-parent peaks)×100

The target of another series is Flt-4 (Homo sapiens (Human), UniProt P35916). Nature of the series: Kinase activity, EMD Millipore Kinase Profiler. It counts as biochemical. The settings on record: for inhibition at 1 µM: read-out: Flt-4 percent inhibition.
The nature of series [3]: Metabolite profiling of human feces after [14C] cabozantinib (mass balance study). It counts as in vivo. As to conditions: single 175 mg oral dose. On the procedure:
as §1, §2, §3, §4
The supernatants were dried under a nitrogen stream, and the residues were reconstituted in water:ACN:FA (80:20:0.1, v/v/v). The reconstituted samples were centrifuged at 15,000 rpm for 10 min before analysis.
as §5, §6
For the pooled fecal samples, percent of total radioactivity in the pooled sample for each peak was calculated as the percent of total non-parent plus parent in the pooled samples: % of total non-parent plus parent in the pooled samples=(total radioactivity of the peak/total radioactivity of the parent and non-parent peaks)×100

In another series the target is c-Met (Homo sapiens (Human), UniProt P08581). Nature of the series: Kinase activity, EMD Millipore Kinase Profiler. The series is classed as biochemical. The settings on record: for inhibition at 1 µM: read-out: c-Met percent inhibition; for IC50: read-out: c-Met Std (IC50).
The target of another series is RET (Homo sapiens (Human), UniProt P07949). Nature of the series: Kinase activity, EMD Millipore Kinase Profiler. As to conditions: read-out: RET percent inhibition. The series is classed as biochemical.
The next series addresses KDR (Homo sapiens (Human), UniProt P35968). Nature of the series: Kinase activity, EMD Millipore Kinase Profiler. It counts as biochemical. As to conditions: for inhibition at 1 µM: read-out: KDR percent inhibition; for IC50: read-out: KDR Std (IC50).
The target in the next series is Flt-3 (Homo sapiens (Human), UniProt P36888). The series can be described thus: Kinase activity, EMD Millipore Kinase Profiler. As to conditions: for inhibition at 1 µM: read-out: Flt-3 percent inhibition; for IC50: read-out: Flt-3 Std (IC50). The series is classed as biochemical.
For another series, the target named is Aurora B MP (Homo sapiens (Human), UniProt Q96GD4). The series can be described thus: Kinase activity, EMD Millipore Kinase Profiler. The series is classed as biochemical. The settings on record: for inhibition at 1 µM: read-out: Aurora B MP percent inhibition; for IC50: read-out: Aurora B MP 8pt Std (IC50).
In the next series the target is Flt-1 Alpha (Homo sapiens (Human), UniProt P17948). The series can be described thus: Kinase activity, EMD Millipore Kinase Profiler. As to conditions: for inhibition at 1 µM: read-out: Flt-1 Alpha percent inhibition.
Chain of Flt-1 Alpha (P17948 27-1338): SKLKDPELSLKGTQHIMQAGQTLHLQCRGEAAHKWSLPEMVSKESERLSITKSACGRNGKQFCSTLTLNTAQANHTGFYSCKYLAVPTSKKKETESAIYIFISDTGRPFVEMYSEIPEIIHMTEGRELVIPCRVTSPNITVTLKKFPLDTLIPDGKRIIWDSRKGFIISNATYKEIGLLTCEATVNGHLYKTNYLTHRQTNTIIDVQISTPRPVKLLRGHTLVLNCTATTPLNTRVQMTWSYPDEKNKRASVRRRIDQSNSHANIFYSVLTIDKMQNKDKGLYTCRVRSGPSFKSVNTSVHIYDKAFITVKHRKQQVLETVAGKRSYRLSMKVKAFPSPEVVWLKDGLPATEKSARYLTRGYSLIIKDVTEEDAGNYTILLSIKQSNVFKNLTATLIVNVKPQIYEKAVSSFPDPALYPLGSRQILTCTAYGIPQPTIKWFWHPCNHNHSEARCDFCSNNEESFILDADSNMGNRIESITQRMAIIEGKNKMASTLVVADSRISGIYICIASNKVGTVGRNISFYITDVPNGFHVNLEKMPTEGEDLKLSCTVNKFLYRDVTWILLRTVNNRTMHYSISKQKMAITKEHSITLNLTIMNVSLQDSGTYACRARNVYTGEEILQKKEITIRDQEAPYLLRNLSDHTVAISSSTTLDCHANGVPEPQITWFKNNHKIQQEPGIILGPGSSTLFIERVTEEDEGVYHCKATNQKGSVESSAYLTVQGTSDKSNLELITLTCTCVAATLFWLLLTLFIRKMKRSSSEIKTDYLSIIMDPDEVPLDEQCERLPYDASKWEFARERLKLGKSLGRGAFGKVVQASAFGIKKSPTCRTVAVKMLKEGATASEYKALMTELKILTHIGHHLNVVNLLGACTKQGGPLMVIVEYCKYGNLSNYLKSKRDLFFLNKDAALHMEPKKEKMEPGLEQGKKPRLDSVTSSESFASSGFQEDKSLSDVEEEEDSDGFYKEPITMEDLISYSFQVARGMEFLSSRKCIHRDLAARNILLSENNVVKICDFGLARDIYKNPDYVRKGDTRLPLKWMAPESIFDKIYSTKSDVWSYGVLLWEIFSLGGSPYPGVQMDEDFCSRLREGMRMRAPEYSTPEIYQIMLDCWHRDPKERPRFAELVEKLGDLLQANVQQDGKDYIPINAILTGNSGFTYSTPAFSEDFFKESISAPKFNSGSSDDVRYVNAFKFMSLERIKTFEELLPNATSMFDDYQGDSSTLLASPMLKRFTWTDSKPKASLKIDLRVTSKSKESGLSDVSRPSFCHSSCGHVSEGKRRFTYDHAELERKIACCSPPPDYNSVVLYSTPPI

Chain of Flt-4 (P35916 25-1363): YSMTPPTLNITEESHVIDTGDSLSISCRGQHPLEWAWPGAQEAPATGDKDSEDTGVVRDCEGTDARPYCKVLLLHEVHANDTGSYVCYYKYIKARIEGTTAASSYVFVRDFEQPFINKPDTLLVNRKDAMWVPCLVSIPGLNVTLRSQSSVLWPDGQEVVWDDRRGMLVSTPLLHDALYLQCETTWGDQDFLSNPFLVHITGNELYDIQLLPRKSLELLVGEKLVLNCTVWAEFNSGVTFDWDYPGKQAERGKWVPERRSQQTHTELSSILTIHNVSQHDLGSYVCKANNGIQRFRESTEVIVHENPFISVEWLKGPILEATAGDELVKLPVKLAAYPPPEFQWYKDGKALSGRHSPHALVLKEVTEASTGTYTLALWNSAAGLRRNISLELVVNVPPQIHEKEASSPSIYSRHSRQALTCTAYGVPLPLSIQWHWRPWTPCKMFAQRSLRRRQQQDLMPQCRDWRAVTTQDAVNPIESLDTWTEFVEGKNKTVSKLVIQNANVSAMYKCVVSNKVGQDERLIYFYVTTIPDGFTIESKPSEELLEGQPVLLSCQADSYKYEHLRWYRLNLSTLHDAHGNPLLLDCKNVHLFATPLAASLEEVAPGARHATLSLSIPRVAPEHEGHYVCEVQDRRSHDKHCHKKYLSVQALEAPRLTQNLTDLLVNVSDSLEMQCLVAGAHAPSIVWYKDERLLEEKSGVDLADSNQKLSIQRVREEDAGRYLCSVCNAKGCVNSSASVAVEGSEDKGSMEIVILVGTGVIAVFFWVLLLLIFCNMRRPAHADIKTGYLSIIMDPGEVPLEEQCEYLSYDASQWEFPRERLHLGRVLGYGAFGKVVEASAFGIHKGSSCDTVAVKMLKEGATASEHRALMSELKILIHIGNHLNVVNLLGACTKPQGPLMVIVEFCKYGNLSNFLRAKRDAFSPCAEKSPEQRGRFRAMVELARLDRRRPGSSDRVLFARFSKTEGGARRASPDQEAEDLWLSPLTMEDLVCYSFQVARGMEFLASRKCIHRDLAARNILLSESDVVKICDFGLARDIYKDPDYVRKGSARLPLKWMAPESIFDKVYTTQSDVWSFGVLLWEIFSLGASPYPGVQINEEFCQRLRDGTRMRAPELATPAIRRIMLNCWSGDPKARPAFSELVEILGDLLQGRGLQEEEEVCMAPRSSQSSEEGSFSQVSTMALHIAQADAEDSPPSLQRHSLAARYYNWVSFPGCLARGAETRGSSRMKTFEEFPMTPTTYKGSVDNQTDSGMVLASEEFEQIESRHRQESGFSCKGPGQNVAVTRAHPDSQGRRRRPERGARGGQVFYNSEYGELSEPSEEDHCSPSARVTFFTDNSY
Chain of c-Met (P08581 25-1390): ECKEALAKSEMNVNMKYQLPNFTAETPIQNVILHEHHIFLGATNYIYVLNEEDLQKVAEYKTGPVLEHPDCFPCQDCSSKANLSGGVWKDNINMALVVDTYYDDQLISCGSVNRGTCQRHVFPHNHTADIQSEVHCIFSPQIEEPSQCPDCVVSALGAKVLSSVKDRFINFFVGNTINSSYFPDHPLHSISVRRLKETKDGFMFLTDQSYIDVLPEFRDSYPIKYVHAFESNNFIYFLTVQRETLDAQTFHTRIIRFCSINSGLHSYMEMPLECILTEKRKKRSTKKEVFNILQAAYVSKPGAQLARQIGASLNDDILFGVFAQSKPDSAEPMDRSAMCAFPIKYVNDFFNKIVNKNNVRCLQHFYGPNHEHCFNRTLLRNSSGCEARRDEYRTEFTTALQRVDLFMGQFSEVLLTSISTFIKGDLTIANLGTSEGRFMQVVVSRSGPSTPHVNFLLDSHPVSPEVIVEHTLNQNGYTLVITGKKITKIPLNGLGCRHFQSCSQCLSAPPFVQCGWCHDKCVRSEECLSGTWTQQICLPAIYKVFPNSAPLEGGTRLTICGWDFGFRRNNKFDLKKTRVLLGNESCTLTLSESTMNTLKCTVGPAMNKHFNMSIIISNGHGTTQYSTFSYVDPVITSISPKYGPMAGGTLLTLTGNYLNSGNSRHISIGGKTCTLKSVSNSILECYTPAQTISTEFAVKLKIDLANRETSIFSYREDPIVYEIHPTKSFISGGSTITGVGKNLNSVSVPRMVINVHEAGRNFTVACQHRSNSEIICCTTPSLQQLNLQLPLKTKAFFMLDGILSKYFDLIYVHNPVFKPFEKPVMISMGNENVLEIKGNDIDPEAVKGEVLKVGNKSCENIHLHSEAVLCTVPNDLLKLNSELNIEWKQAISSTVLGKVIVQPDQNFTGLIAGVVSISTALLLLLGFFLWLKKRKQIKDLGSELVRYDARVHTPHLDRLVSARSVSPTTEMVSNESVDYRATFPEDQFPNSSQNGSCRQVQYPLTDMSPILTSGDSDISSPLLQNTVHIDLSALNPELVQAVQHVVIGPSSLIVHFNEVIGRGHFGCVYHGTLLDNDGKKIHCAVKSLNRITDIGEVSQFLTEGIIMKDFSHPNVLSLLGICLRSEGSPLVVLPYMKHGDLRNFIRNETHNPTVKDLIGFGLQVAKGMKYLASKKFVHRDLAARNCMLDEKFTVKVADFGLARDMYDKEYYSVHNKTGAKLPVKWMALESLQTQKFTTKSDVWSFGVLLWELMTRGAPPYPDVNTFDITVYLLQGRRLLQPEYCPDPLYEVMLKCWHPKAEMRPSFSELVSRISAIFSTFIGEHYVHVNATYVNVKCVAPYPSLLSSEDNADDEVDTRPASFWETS
Chain of Aurora B MP (Q96GD4 whole entry): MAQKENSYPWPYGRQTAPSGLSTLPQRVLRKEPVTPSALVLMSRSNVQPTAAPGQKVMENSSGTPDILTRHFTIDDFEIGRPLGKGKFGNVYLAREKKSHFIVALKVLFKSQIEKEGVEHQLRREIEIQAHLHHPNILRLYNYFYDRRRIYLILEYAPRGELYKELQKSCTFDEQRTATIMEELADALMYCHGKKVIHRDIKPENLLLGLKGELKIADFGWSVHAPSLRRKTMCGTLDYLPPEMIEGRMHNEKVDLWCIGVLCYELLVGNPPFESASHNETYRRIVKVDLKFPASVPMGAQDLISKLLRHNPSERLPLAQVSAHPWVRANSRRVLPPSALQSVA

As for `COc1cc2c(Oc3ccc(NC(=O)C4(C(=O)Nc5ccc(F)cc5)CC4)cc3)cc[n+]([O-])c2cc1OC` [Compound 19], the “peak on plasma radio-chromatograms” value in series [1] is reported as “major peaks”. For the same compound, the “presence in pooled urine sample” value in series [2] (0-72 hours post dose) is listed as “observed”.

For orientation: IC50 means the concentration that inhibits the measured activity by half. As for `COc1cc2nccc(Oc3ccc(NC(=O)C4(C(=O)Nc5ccc(F)cc5)CC4)cc3)c2cc1OC` [Cabozantinib, N-(4-{[6,7-bis(methyloxy)quinolin-4-yl]oxy}phenyl)-N′-(4-fluorophenyl)cyclopropane-1,1-dicarboxamide, reference compound], the half-inhibitory concentration (IC50) on Flt-4 (read-out: Flt-4 Std (IC50)) is < 50 nM. Moreover, the “peak on plasma radio-chromatograms” value in series [1] was “major peaks”. Besides, the “presence in urine samples” value in [2] (human urine samples, all intervals) is given as “not observed”. Further, the “presence in pooled fecal sample” value in series [3] (0-72 hours post dose) is given as “observed”.

As usually defined, the inhibition is the percentage by which the read-out fell short of the control. Turning to `COc1cc2nccc(Oc3ccc(NC(=O)C4(C(=O)Nc5ccc(F)cc5OS(=O)(=O)O)CC4)cc3)c2cc1OC` [Compound 9], the inhibition at 1 µM on c-Met is ≥ 75%; at RET it was ≥ 75%; on KDR it was ≤ 25%; at Flt-3, ≥ 50%; at Flt-4, ≥ 75%; at Aurora B MP, ≥ 75%. Further, the inhibition at 1 µM on Flt-1 Alpha was ≥ 50%. Also, in series [1], the “peak on plasma radio-chromatograms” value is on record as “major peaks”.

Take `COc1cc2nccc(Oc3ccc(NC(=O)C4(C(=O)O)CC4)cc3)c2cc1OS(=O)(=O)O` [Compound 2a]: the inhibition at 1 µM was ≥ 50% on c-Met; ≤ 25% on RET; ≤ 25% on KDR; ≤ 25% on Flt-3; ≥ 25% on Flt-4; ≤ 25% on Aurora B MP. For the same compound, the inhibition at 1 µM on Flt-1 Alpha is ≤ 25%.

On to `COc1cc2nccc(Oc3ccc(NC(=O)C4(C(=O)O)CC4)cc3)c2cc1OC` [Compound 7, 1-[4-(6,7-Dimethoxy-quinolin-4-yloxy)-phenylcarbamoyl]-cyclopropane carboxylic acid], for which the IC50 was > 5000 nM at c-Met, > 5000 nM on KDR, 500 to 5000 nM on Flt-3 and 500 to 5000 nM on Aurora B MP. For the same compound, the “peak on plasma radio-chromatograms” value in series [1] is on record as “one of the minor peaks”. The “presence in pooled urine sample” value in [2] (0-72 hours post dose) and in series [2] (144-192 hours post dose) was “observed” in each case. For the same compound, the “presence in pooled fecal sample” value in series [3] (0-72 hours post dose) and in [3] (144-192 hours post dose) was “observed” in each case.

For `COc1cc2nccc(Oc3ccc(NC(=O)C4(C(=O)Nc5ccc(F)c(O)c5)CC4)cc3)c2cc1OC` [Compound 13], the IC50 on c-Met was < 50 nM; on KDR, < 50 nM; at Flt-3, < 50 nM; on Aurora B MP, 50 to 500 nM; against Flt-1 Alpha, 500 to 5000 nM.

As for `COc1cc2nccc(Oc3ccc(NC(=O)C4(C(=O)Nc5ccc(F)cc5O)CC4)cc3)c2cc1OC` [Compound 16], the IC50 on c-Met is < 50 nM; at KDR, < 50 nM; on Flt-3 it was < 50 nM; on Aurora B MP, 50 to 500 nM; against Flt-1 Alpha it was 500 to 5000 nM. Also, the “presence in pooled fecal sample” value in series [3] (0-72 hours post dose) and in [3] (144-192 hours post dose) was “observed” each time.
